Molecular target: T1, human P-selectin (Homo sapiens, UniProt P16109)
T1 construct: truncated form of human P-selectin comprised of the lectin and EGF domains (P-LE)
T1 sequence (P16109 42-198): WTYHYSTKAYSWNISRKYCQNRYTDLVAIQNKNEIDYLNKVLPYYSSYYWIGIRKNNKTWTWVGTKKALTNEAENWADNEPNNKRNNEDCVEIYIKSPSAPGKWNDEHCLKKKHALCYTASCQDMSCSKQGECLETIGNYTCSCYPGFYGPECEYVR
Experiment: Biacore inhibition of P-selectin binding to PSGL-1 (P-LE to immobilized SGP-3)
Details: at 1 mM
Method: Compounds of the invention can be assayed for selectin inhibitory activity using any of the procedures known in the art. One convenient procedure is the determination of IC50 values for inhibition of P-selectin binding to P-selectin glycoprotein ligand-1 (PSGL-1) using Biacore.
The Biacore 3000 is an instrument that uses surface plasmon resonance to detect binding of a solution phase analyte to an immobilized ligand on a sensor chip surface. The analyte sample is injected under flow using a microfluidic system. Binding of analyte to ligand causes a change in the angle of refracted light at the surface of the sensor chip, measured by the Biacore instrument in resonance units (RUs).
SGP-3 is a purified sulfoglycopeptide form of human PSGL-1 that contains the P-selectin binding determinants (See Somers et al., 2000, Cell 103, 467-479). SGP-3 was biotinylated via amine chemistry at a unique C-terminal lysine residue and immobilized on streptavidin-coated SA sensor chip. […]
The Biacore assay measures the signal in RU produced by binding of P-LE to SGP-3 in the presence and absence of inhibitors. Percent inhibition of binding is calculated by dividing the inhibited signal by the uninhibited signal subtracting this value from one then multiplying by one hundred. […] The data from this titration are plotted, RU values vs. concentration, and the IC50 is determined by extrapolation from the plot. […]

percent inhibition of binding (positive control): 50%
SMILES: CC1(C)[C@@H](O[C@H]2O[C@H](C(=O)O)[C@@H](O)[C@H](O)[C@H]2O[C@@H]2O[C@H](C(=O)O)[C@@H](O)[C@H](O)[C@H]2O)CC[C@]2(C)[C@H]3C(=O)C=C4[C@@H]5C[C@@](C)(C(=O)O)CC[C@]5(C)CC[C@@]4(C)[C@]3(C)CC[C@@H]12 [Glycerrhizzin]

— US7465798B2, “Methods and compositions for selectin inhibition” (Wyeth, priority 2003, dated 2008)
